Here are results for 1 molecule from patent publication US9938235B2, “Compounds with neural protective effect, and preparation and use thereof” (GUANGZHOU MAGPIE PHARMACEUTICAL CO., LTD., priority 2014, dated 2018).

The subject of assay [1] is TH neurons in SNpc area. Kind of assay: TH neuron immunohistochemistry, SNpc area, MPTP-induced PD mice. It counts as in vivo, C57BL/6J mice. Here is the method:
(§1) Forty of C57BL/6J mice (male, 6 to 7 week-old) were feed for 7 days to adapt to the environment. On the day 8, animal model was started to prepare. 20 mg/kg MPTP was given via intraperitoneal injection for the model group and drug group, the injection was made every 2 hours, for four times in total, and an acute PD model was established. The equivalent amount of saline was given to the normal control group. From the day 2 of model establishment, the compound MT-019 and the positive control drug Rasagiline (1 mg/kg) were given. The doses of MT-019 were 25, 75, 225 mg/kg, respectively. The drug was given once a day, and a equal amount of saline was given to the normal control group and the MPTP model group, for seven days consecutively. On the day 7 of drug administration, behavioral test is performed.
After the above-mentioned animal model was set up and drug was given to the mice as described in Example 86, materials was taken at 12 hours after the last drug administration in the steps shown below: (1) With 10% chloral hydrate anesthesia in mice, the mice were fixed on an operating table, the chest thereof was quickly open; (2) […], […] the left ventricle, the right auricle was cut open, and a blood buffer was delivered to the heart from an infusion bottle with a volume of about 50 mL per mouse; (3) after the lavage fluid became colorless, the blood buffer was replaced with 4% paraformaldehyde solution in perfusion until the tail and limbs of the mice became stiff, wherein the infusion volume was about 100 mL per mouse; (4) the brain was taken by making the mice beheaded on a flat glass board, and redundant parts were carefully removed. The midbrain was placed and fixed in a centrifuge tube containing freshly prepared 4% paraformaldehydea. The samples were cut into paraffin sections through the process of dehydrating, transparent, paraffining and embedding steps. Each of the samples was cut with paraffin slicing machine into four microns slices. After fully unfold in water bath, the slices were put on glass plates and numbered. […]

Assay [2] deals with MPTP-induced abnormal behavior of mice of Parkinson's disease (PD) model. The experiment in a line: Behavioral test in MPTP-induced mice of Parkinson's disease (PD) model. It counts as in vivo, C57BL/6J mice. The settings on record: MT-019 25, 75, 225 mg/kg once a day for seven days; behavioral test on day 7 of administration. Here is the method:
as §1

Regarding `C#CCNC(C)c1ccc(/C=[N+](\[O-])C(C)(C)C)c(OC(=O)N(C)CC)c1` (stereo not shown) [MT-019], the “protective effect to dopaminergic neurons compared with positive control Rasagiline” value in assay [1] (25 mg/kg MT-019 versus Rasagiline 1 mg/kg) is recorded as “equivalent to that of the positive control drug Rasagiline 1 mg/kg”. Further, in assay [1] (MT-019 25, 75, 225 mg/kg once a day for seven days, material taken 12 hours after last administration), the “protective effect on SNpc area TH neurons (positive cell count in substantia nigra)” value is listed as “had protective effect”. In addition, the “dose dependence of protective effect on TH neurons” value in assay [1] (doses 25, 75, 225 mg/kg) was “stronger effect was indicated with higher doses”. Moreover, the “recovery effect to MPTP-induced abnormal behavior” value in assay [2] was “had recory effect”.
